Measurements published in patent publication US9926293B2, “Multivalent RAS binding compounds” (THE TRUSTEES OF COLUMBIA UNIVERSITY IN THE CITY OF NEW YORK, priority 2014, dated 2018).

How the values were obtained:
GppNHp-loaded RHEB = GppNHp-loaded RHEB (Homo sapiens, UniProt Q15382); test: Microscale thermophoresis on GppNHp-loaded RHEB; format: binding; details: MST, up to 190 μM
Protocol: (§1) KRAS^G12D (250 μM) in 25 mM HEPES, 100 mM sodium chloride, 2 mM TCEP with 20 mM EDTA and 1 mM GppNHp was shaken at 220 rpm at 30° C. to remove the endogenous nucleotide, The solution was placed on ice for 2 minutes prior to the addition of 65 mM MgCl2. After an additional 10 minutes incubation on ice, 200 uL of a 10 uM solution of KRAS^G12D was combined with 200 uL of a 20 uM solution of NT-647-NHS-ester dye (from a 652.4 μM stock). The protein/dye mixture was rotated at 4° C. for 30 minutes, before being separated from the excess dye and buffer exchanged into 25 mM Tris, 100 mM sodium chloride, 2 mM TCEP, and 5 mM MgCl2 via a nap-5 column. The test compounds were arrayed across a 16-point dilution series consisting of 1.5% DMSO with 25 mM Tris, 100 mM NaCl, 2 mM TCEP, 5 mM MgCl2 and 0.05% tween-20. Thermophoretic movement of the fluorescently labeled protein with the inhibitors was performed using a Monolith NT.115 (Nanotemper Technologies). RALA and RHOA were purchased commercially from Abcam (RALA CN:ab102555, RHOA CN:ab101594).
(§2) To provide evidence that the compound indeed was selective for RAS GTPases, MST binding measurements were performed on GppNHp-loaded RHEB, RHOA and RALA (FIG. 14J).

BJeLR (HRAS^G12V) cells = test: Gene expression analysis by RT-qPCR; format: cell-based
Protocol: FIG. 22A-FIG. 22D show BJeLR cells were treated with DMSO, 31 MEW44 at 5 μM and/or 25 μM alongside BJHLT treated with DMSO for one hour. Cells were lysed and the RNA was extracted, converted to cDNA and quantified by qPCR.
Gene Expression Analysis by RT-qPCR
Cells from six-well plates were trypsinized and centrifuged at 3,000 rpm for 3 minutes. The cell pellet was then lysed and the RNA was extracted using QIAshreader and RNAeasy extraction kits (QIAGEN) according to the manufacturer's protocol. 2 micrograms of RNA from each sample was then converted to cDNA using the TaqMan RT Kit (Applied Biosystems). Primers for Quantitative PCR (qPCR) were designed with Primer Express. qPCR was performed using Power SYBR Green Master Mix (Applied Biosystems) in a 96-well format, in triplicate, using an Applied Biosystems 7300 Cycler set to absolute quantification. Expression changes were computed using the ΔΔCt method with GAPDH as an internal reference gene. The primers used were as follows: urokinase-type plasminogen activator (uPA) Forward 5′ […] 3′ (SEQ ID NO: 54), reverse 5′ […] 3′ (SEQ ID NO: 55); matrix metalloprotease 9 (MMP9) forward 5′ […] 3′ (SEQ ID NO: 56), reverse 5′ […] 3′ (SEQ ID NO: 57); lactate dehydrogenase (LDH) forward 5′ […] 3′ (SEQ ID NO: 58), reverse 5′ […] 3′ (SEQ ID NO: 59); CMYC forward 5′ […] 3′ (SEQ ID NO: 60), reverse 5′ […] 3′ (SEQ ID NO: 61).

[1] = system: Mia-Paca2, NCI-H441, NCI-H23, BJeLR and HT1080 cells; test: Expression of the mutant RAS isoform by qPCR; format: cell-based; details: 4 and 24 hours, 10 μM
Description: Samples were normalized to DMSO treatment.
In addition to altering genes associated with RAS activation, it was hypothesized that upon inhibitor treatment, cells would attempt to compensate by expressing additional RAS proteins.

[2] = system: active GTP-bound RALA in BJeLR cells; test: RALA activation assay using RALBP1; format: cell-based; details: 2% FBS
Protocol: BJeLR cells were seeded 16 hours prior to use in 2% FBS in DMEM. […] After 6 hours cells were washed twice with ice cold buffer (25 mM tris, 100 mM NaCl, 1 mM TCEP, 5 mM MgCl2, 0.1% tween-20 and 1 protease inhibitor/25 mL). Cells were scrapped, pelleted at 13,000 rpm for 10 minutes at 4° C., then passed through a 26 gauge needle several times. The solution was spun down a second time at 13,000 rpm for 15 minutes at 4° C., to remove unlysed cells and debris. RALBP1 agarose beads (EMD Millipore) were then added to the lysate and the solution was rotated at 4° C. for 2 hours. The solutions were spun down at 1500×g for 2 minutes and the supernatant was removed by syringe. The beads were washed twice by this process with buffer, then resuspended in 2.5×SDS.

Microsomal stability = format: in vitro ADME; details: mouse liver microsomes, 45 minute incubation
Protocol: Test compounds (0.5 μM) were incubated at 37° C. for up to 45 minutes in 50 mM of potassium phosphate buffer (pH 7.4) containing microsomal protein (0.5 mg/mL) and an NADPH generating system (0.34 mg/mL β-nicotinamide adenine dinucleotide phosphate (NADP), 1.56 mg/mL glucose-6-phosphate, 1.2 units/mL glucose-6-phosphate dehydrogenase). At 0, 5, 15, 30 and 45 minute intervals an aliquot was taken and quenched with acetonitrile (ACN) containing an internal standard. No-cofactor controls at 45 minutes were prepared. Following completion of the experimentation, the samples were analyzed by LC-MS/MS using a Shimadzu HPLC and an Applied Biosystem AP 14000.

KRAS^G12D with GDP = biological target: T1, KRAS^G12D with GDP (Homo sapiens, UniProt P01116, G12D); test: Microscale thermophoresis, GDP-loaded KRAS^G12D; format: binding
T1 construct: made in house; host or cells: Escherichia coli BL21-Gold (DE3)
Protocol: as §1, with “KRAS^G12D (250 μM) in 25 mM HEPES, 100 mM sodium chloride, 2 mM TCEP with 20 mM EDTA and 1 mM GppNHp was shaken at 220 rpm at 30° C. to remove the endogenous nucleotide, The solution was placed on ice for 2 minutes prior to the addition of 65 mM MgCl2.” left out

GppNHp-loaded RALA = biological target: T2, GppNHp-loaded RALA (Homo sapiens, UniProt P11233); test: Microscale thermophoresis on GppNHp-loaded RALA; format: binding; details: MST, up to 190 μM
T2 construct: purchased Abcam ab102555
Protocol: as §1, §2

GppNHp-loaded RHEB, sequence (Q15382 whole entry): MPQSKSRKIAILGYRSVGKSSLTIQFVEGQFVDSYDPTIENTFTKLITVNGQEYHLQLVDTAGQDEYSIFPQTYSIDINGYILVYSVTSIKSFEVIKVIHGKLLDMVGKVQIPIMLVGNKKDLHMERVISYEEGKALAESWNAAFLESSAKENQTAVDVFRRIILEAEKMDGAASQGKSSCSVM
T2 sequence (P11233 whole entry): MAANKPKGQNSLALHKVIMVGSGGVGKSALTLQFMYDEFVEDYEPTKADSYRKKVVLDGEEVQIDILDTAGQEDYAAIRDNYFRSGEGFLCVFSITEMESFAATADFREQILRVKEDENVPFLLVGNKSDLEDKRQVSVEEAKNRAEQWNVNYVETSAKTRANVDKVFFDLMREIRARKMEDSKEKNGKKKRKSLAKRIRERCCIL

NC1(C(=O)NCCCn2cc(-c3ccc(OC(F)(F)F)cc3)c3cc(CN4CCN(Cc5c(Cl)cccc5Cl)CC4)ccc32)CCNCC1 [Compound 31MEW44, 4-amino-N-(3-(5-((4-(2,6-dichlorobenzyl)piperazin-1-yl)methyl)-3-(4-(trifluoromethoxy)phenyl)-1H-indol-1-yl)propyl)piperidine-4-carboxamide]
binding (GppNHp-loaded RHEB): no binding was observed | CMYC mRNA (BJeLR (HRAS^G12V) cells): dose-dependent reduction in CMYC mRNA | LDH expression (BJeLR (HRAS^G12V) cells): decreased these elevated levels of LDH, dose-dependently | MMP9 expression (BJeLR (HRAS^G12V) cells): Downregulation of MMP9 expression | DUSP6 and IDH2 expression profile (BJeLR (HRAS^G12V) cells; 5 μM and 25 μM): profile characteristic of decreased activation of RAS signaling | uPA expression (BJeLR (HRAS^G12V) cells; 5 μM and 25 μM): dose-dependent decrease in uPA expression | RAS expression [1]: time-dependent increase of RAS expression | active GTP-bound RALA [2]: decreased levels of active GTP-bound RALA | compound remaining (Microsomal stability): all of 31MEW44 remained | loss in affinity (KRAS^G12D with GDP; GDP-loaded vs GppNHp-loaded KRAS^G12D): five-fold | Kd (KRAS^G12D with GDP; MST, GDP-loaded KRAS^G12D): 45 µM | binding (GppNHp-loaded RALA): no binding was observed
